Publication PMC12055641, “The Study of Antistaphylococcal Potential of Omiganan and Retro-Omiganan Under Flow Conditions” (Probiotics and Antimicrobial Proteins, 2024)
Values joined by “and” are separate entries in the source; they are usually repeats but may differ in a detail not shown here. Identical values can stand only once. No end group written: not given here.

How the values were obtained:
[1] = system: mupirocin-resistant MRSA strains; set-up: method as in PMID 28581672; conditions: all mupirocin-resistant MRSA strains analyzed; cited from earlier work
[2] = incubation with human skin S9 protease; cited from earlier work
S. aureus ATCC 25923 = test: Membrane depolarization DiSC3(5); type: cell-based, Staphylococcus aureus; conditions: 2 × MIC, DiSC3(5) fluorescence
Experimental: (§1) Membrane depolarization activities of omiganan and retro-omiganan were evaluated using DiSC3(5) (3,3′-dipropylthiadicarbocyanine iodide; Thermo Fischer Scientific, Invitrogen™). The S. aureus ATCC 25923 and S. aureus ATCC 33591 strains were grown at 37 °C up to a mid-log phase (approx. 4 h) in the Mueller–Hinton broth. The cultures were centrifuged (3500 rpm, 7 min) and washed with a 20 mM glucose solution in HEPES buffer (5 mM, pH 7.2). The cells were resuspended in a 5 mM HEPES buffer supplemented with 20 mM glucose and 100 mM KCl (pH 7.2) to an OD 0.05 at 600 nm. The final concentration of the dye was 0.4 μM. The fluorescence was monitored at 20 °C (λex 620 nm and λem 678 nm) with Fluoroskan Ascent FL (Thermo Fisher Scientific) fluorometer. […] A HEPES solution with glucose was used as a negative control. The measurements were conducted twice to ensure the reproducibility.

[3] = system: S. aureus ATCC 33591 (MRSA); test: Membrane depolarization DiSC3(5); type: cell-based, Staphylococcus aureus; conditions: 2 × MIC, DiSC3(5) fluorescence
Experimental: as §1

ILRWPWWPWRRK-NH2 [Omiganan]
MIC [1]: 12.5 µM and 22.7 µg/mL | half-life [2]: ca. 10 min | membrane depolarization (S. aureus ATCC 25923): cause depolarization of S. aureus membranes immediately after the addition | membrane depolarization [3]: cause depolarization of S. aureus membranes immediately after the addition

KRRWPWWPWRLI-NH2 [Retro-Omiganan]
membrane depolarization (S. aureus ATCC 25923): cause depolarization of S. aureus membranes immediately after the addition | membrane depolarization [3]: cause depolarization of S. aureus membranes immediately after the addition
